Reference: the kinase profiling compilation of Christmann-Franck et al. (2016)
Values belong to the compound of their own block, whether it stands above or below them.

Assays:
Test in all cases: radiometric filter-binding kinase assay
[1] = biological target: NEK2 (human) (UniProt P51955)
[2] = tested on: AKT2 (human), P31751 [S474D]
[3] = tested on: LCK (mouse); details: accession and sequence are those of the human protein
[4] = biological target: TBK1 (human) (UniProt Q9UHD2)
[5] = biological target: MAPK9 (human) (UniProt P45984)
[6] = biological target: INSRR (human) (UniProt P14616)
[7] = biological target: PRKACA (human) (UniProt P17612)
[8] = tested on: AKT1 (human), P31749 [S473D]
[9] = biological target: MKNK2 (human) (UniProt Q9HBH9)
[10] = biological target: IKBKB (human) (UniProt O14920)
[11] = biological target: MYLK (human) (UniProt Q15746)
[12] = biological target: MAPK12 (human) (UniProt P53778)
[13] = biological target: CAMKK2 (human) (UniProt Q96RR4)
[14] = biological target: PAK4 (human) (UniProt O96013)
[15] = tested on: ROCK2 (rat); details: accession and sequence are those of the human protein
[16] = biological target: MST4 (human) (UniProt Q9P289)
[17] = biological target: IKBKE (human) (UniProt Q14164)
[18] = biological target: MAPK14 (human) (UniProt Q16539)
[19] = biological target: DYRK3 (human) (UniProt O43781)
[20] = biological target: MARK3 (human) (UniProt P27448)
[21] = biological target: MAPKAPK5 (human) (UniProt Q8IW41)
[22] = biological target: PIM2 (human) (UniProt Q9P1W9)
[23] = biological target: SRC (human) (UniProt P12931)
[24] = biological target: MAPK3 (human) (UniProt P27361)
[25] = biological target: MAPKAPK2 (human) (UniProt P49137)
[26] = biological target: HIPK3 (human) (UniProt Q9H422); details: compound 1.0 µM
[27] = biological target: TEK (human) (UniProt Q02763); details: compound 1.0 µM
[28] = biological target: NUAK1 (human) (UniProt O60285); details: compound 1.0 µM
[29] = biological target: IGF1R (human) (UniProt P08069); details: compound 1.0 µM
[30] = biological target: EPHB2 (human) (UniProt P29323); details: compound 1.0 µM
[31] = biological target: TAOK1 (human) (UniProt Q7L7X3); details: compound 1.0 µM
[32] = biological target: MAPK10 (human) (UniProt P53779); details: compound 1.0 µM
[33] = biological target: MAP3K9 (human) (UniProt P80192); details: compound 1.0 µM
[34] = biological target: MAP2K2 (human) (UniProt P36507); details: compound 1.0 µM
[35] = biological target: MAP3K1 (human) (UniProt Q13233); details: compound 1.0 µM
[36] = biological target: EPHB1 (human) (UniProt P54762); details: compound 1.0 µM
[37] = biological target: PRKCG (human) (UniProt P05129); details: compound 1.0 µM
[38] = biological target: MAPKAPK3 (human) (UniProt Q16644); details: compound 1.0 µM
[39] = biological target: MAP2K6 (human) (UniProt P52564); details: compound 1.0 µM
[40] = biological target: BRSK1 (human) (UniProt Q8TDC3); details: compound 1.0 µM
[41] = biological target: ZAP70 (human) (UniProt P43403); details: compound 1.0 µM

Chain of NEK2 (human) (P51955 whole entry, looked up): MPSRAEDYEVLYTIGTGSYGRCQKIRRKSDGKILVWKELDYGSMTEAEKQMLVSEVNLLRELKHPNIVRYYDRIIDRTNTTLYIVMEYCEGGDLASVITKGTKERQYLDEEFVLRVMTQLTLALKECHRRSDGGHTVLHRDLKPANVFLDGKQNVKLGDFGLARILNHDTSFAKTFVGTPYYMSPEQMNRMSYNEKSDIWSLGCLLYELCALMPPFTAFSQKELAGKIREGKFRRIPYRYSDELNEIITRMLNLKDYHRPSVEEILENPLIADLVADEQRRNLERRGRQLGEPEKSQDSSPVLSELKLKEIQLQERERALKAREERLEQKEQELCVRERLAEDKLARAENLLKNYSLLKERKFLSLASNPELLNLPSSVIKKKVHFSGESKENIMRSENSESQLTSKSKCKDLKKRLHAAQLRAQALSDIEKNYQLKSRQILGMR
Chain of PIM2 (human) (Q9P1W9 whole entry, looked up): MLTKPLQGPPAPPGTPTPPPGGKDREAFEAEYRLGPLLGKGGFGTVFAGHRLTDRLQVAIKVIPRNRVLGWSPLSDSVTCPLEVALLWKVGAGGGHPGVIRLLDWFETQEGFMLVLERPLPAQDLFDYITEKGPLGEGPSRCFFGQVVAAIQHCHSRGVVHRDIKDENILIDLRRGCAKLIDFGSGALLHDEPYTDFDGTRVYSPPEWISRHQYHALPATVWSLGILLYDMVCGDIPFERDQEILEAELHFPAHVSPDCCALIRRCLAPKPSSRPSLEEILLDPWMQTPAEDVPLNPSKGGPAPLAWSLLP
Chain of IKBKE (human) (Q14164 whole entry, looked up): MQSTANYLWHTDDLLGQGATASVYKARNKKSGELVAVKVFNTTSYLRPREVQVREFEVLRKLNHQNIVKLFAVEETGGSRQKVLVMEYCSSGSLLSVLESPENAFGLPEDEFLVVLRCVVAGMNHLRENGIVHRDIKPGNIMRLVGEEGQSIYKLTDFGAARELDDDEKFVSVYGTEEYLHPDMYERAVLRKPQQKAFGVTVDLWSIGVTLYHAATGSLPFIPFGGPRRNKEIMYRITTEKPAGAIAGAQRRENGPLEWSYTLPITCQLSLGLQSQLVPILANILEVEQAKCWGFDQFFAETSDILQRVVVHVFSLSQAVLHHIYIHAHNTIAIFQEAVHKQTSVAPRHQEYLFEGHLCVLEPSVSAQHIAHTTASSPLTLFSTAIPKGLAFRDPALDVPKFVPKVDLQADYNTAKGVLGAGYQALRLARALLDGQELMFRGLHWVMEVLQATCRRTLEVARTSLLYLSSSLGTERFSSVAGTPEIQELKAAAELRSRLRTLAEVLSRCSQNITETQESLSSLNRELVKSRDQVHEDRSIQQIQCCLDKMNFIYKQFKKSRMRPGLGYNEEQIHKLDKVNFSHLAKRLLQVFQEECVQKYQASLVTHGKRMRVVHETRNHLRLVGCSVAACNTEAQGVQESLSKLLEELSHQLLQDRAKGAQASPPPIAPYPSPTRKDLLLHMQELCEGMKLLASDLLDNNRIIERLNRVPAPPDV
Chain of AKT2 (human), P31751 [S474D] (P31751 whole entry S474D, looked up): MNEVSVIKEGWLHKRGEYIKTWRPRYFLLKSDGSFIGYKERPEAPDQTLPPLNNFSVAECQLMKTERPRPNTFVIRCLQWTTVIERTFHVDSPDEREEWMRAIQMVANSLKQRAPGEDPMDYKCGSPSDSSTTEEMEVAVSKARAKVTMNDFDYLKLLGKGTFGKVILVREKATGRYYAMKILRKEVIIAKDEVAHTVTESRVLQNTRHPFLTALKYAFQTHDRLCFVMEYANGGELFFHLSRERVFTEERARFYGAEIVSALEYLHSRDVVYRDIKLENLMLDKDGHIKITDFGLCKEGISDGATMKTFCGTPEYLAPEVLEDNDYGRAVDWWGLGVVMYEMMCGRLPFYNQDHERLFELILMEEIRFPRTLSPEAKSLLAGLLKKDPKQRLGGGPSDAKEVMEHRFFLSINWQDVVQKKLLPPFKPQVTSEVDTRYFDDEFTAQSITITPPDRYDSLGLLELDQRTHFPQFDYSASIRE
Chain of INSRR (human) (P14616 whole entry, looked up): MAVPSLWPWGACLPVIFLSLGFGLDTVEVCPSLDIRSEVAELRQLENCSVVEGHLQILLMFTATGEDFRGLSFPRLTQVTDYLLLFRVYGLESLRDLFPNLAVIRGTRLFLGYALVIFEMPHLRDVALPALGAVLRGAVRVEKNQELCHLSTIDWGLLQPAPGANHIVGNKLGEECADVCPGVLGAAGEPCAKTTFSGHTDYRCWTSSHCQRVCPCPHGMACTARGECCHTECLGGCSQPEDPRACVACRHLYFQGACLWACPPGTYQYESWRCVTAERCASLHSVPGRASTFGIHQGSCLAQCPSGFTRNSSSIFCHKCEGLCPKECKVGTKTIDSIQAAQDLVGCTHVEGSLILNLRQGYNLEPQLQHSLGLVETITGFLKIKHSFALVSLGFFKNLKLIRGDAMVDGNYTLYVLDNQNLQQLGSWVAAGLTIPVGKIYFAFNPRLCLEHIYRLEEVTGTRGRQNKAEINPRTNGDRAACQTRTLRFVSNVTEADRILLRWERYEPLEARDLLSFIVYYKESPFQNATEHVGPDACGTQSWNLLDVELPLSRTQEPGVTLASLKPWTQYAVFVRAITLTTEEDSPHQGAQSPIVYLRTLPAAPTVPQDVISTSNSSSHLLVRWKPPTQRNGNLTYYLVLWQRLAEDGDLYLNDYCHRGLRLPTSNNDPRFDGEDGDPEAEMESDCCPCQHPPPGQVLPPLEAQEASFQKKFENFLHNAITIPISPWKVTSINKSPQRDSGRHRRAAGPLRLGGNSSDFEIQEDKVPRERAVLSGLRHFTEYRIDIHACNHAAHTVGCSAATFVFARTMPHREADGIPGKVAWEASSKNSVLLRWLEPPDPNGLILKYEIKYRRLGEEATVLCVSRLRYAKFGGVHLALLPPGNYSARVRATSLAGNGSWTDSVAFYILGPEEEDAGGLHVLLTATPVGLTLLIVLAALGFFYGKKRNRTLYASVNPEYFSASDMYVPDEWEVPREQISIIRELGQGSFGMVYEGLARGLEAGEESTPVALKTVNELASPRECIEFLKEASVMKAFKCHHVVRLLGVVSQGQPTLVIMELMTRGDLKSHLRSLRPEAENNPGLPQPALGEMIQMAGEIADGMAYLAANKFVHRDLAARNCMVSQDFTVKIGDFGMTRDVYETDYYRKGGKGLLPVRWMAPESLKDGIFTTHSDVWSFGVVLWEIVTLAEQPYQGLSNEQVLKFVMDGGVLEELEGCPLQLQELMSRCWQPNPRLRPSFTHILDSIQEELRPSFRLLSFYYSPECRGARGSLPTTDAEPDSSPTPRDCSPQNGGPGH
Chain of AKT1 (human), P31749 [S473D] (P31749 whole entry S473D, looked up): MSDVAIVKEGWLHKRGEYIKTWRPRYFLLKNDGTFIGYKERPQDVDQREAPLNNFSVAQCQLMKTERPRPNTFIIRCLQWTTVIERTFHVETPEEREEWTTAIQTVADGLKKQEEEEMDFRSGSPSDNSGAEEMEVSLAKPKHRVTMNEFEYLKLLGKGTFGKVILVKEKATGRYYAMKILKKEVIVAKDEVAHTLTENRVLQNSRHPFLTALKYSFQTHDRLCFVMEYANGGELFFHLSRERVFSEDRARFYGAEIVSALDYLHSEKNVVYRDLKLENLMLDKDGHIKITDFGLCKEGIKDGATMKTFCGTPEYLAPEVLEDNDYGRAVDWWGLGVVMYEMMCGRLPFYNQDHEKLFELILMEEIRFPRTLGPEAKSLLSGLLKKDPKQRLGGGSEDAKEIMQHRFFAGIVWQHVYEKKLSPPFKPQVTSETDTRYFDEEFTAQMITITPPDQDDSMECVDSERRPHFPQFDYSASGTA
Chain of CAMKK2 (human) (Q96RR4 whole entry, looked up): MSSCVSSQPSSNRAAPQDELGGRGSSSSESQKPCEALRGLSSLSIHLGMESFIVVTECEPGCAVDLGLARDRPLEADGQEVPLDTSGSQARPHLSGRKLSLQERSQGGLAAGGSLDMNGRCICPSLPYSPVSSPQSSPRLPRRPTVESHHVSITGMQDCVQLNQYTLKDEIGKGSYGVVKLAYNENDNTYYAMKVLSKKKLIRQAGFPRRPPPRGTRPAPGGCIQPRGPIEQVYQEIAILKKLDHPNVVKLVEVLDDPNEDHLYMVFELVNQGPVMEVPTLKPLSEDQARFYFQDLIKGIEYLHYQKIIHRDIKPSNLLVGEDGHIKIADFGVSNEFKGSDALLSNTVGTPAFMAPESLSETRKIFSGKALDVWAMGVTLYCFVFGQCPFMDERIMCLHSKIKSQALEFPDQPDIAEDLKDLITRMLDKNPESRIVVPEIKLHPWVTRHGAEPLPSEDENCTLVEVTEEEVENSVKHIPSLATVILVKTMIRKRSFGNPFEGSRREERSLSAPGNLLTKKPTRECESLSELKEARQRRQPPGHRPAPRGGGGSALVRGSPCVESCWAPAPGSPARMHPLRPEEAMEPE
Chain of MAPK9 (human) (P45984 whole entry, looked up): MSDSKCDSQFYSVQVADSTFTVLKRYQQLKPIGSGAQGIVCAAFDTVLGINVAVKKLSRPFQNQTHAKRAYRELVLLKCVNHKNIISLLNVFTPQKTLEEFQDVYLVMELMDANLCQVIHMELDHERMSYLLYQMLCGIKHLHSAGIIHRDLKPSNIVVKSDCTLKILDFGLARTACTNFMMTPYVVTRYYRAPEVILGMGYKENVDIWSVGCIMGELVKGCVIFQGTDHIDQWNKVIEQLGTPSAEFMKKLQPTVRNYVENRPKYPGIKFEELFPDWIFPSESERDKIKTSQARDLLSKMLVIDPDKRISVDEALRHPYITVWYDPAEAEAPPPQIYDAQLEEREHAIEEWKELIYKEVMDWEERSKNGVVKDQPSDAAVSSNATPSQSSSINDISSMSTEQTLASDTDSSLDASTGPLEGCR

residual activity ([1]; compound 20.0 µM): 84%
residual activity ([2]; compound 20.0 µM): 80%
residual activity ([3]; compound 20.0 µM): 93%
residual activity ([4]; compound 20.0 µM): 123%
residual activity ([5]; compound 20.0 µM): 99%
residual activity ([6]; compound 20.0 µM): 47%
residual activity ([7]; compound 20.0 µM): 76%
residual activity ([8]; compound 20.0 µM): 115%
residual activity ([9]; compound 20.0 µM): 65%
residual activity ([10]; compound 20.0 µM): 94%
residual activity ([11]; compound 20.0 µM): 77%
residual activity ([12]; compound 20.0 µM): 85%
residual activity ([13]; compound 20.0 µM): 91%
residual activity ([14]; compound 20.0 µM): 46%
residual activity ([15]; compound 20.0 µM): 78%
residual activity ([16]; compound 20.0 µM): 87%
residual activity ([17]; compound 20.0 µM): 103%
residual activity ([18]; compound 20.0 µM): 84%
residual activity ([19]; compound 20.0 µM): 15%
residual activity ([20]; compound 20.0 µM): 64%
residual activity ([21]; compound 20.0 µM): 61%
residual activity ([22]; compound 20.0 µM): 66%
residual activity ([23]; compound 20.0 µM): 70%
residual activity ([24]; compound 20.0 µM): 100%
residual activity ([25]; compound 20.0 µM): 48%
Compound: Oc1ccc2c(c1)C(O)c1cc(O)ccc1-2

residual activity ([1]; compound 1.0 µM): 98%
residual activity [26]: 63%
residual activity [27]: 112%
residual activity [28]: 88%
residual activity ([2]; compound 1.0 µM): 61%
residual activity ([3]; compound 1.0 µM): 92%
residual activity ([4]; compound 1.0 µM): 80%
residual activity [29]: 78%
residual activity ([5]; compound 1.0 µM): 102%
residual activity [30]: 100%
residual activity [31]: 99%
residual activity ([6]; compound 1.0 µM): 24%
residual activity [32]: 105%
residual activity ([7]; compound 1.0 µM): 101%
residual activity ([8]; compound 1.0 µM): 90%
residual activity [33]: 87%
residual activity ([9]; compound 1.0 µM): 55%
residual activity ([10]; compound 1.0 µM): 85%
residual activity [34]: 102%
residual activity ([11]; compound 1.0 µM): 46%
residual activity ([12]; compound 1.0 µM): 82%
residual activity ([13]; compound 1.0 µM): 76%
residual activity ([14]; compound 1.0 µM): 75%
residual activity ([15]; compound 1.0 µM): 92%
residual activity ([16]; compound 1.0 µM): 86%
residual activity ([17]; compound 1.0 µM): 81%
residual activity [35]: 67%
residual activity [36]: 107%
residual activity [37]: 97%
residual activity ([18]; compound 1.0 µM): 83%
residual activity ([19]; compound 1.0 µM): 17%
residual activity ([20]; compound 1.0 µM): 80%
residual activity ([21]; compound 1.0 µM): 95%
residual activity ([22]; compound 1.0 µM): 40%
residual activity [38]: 84%
residual activity ([23]; compound 1.0 µM): 85%
residual activity ([24]; compound 1.0 µM): 86%
residual activity [39]: 92%
residual activity [40]: 73%
residual activity ([25]; compound 1.0 µM): 80%
residual activity [41]: 90%
Compound: Oc1ccc2c(c1)oc1c3ccccc3c(O)cc21

Compound: COc1ccc2c(c1)[nH]c1c(C)nccc12
residual activity ([1]; compound 1.0 µM): 115%
residual activity [26]: 118%
residual activity [27]: 112%
residual activity [28]: 96%
residual activity ([2]; compound 1.0 µM): 84%
residual activity ([3]; compound 1.0 µM): 88%
residual activity ([4]; compound 1.0 µM): 87%
residual activity [29]: 93%
residual activity ([5]; compound 1.0 µM): 84%
residual activity [30]: 136%
residual activity [31]: 111%
residual activity ([6]; compound 1.0 µM): 23%
residual activity [32]: 81%
residual activity ([7]; compound 1.0 µM): 104%
residual activity ([8]; compound 1.0 µM): 100%
residual activity [33]: 111%
residual activity ([9]; compound 1.0 µM): 84%
residual activity ([10]; compound 1.0 µM): 81%
residual activity [34]: 99%
residual activity ([11]; compound 1.0 µM): 106%
residual activity ([12]; compound 1.0 µM): 67%
residual activity ([13]; compound 1.0 µM): 97%
residual activity ([14]; compound 1.0 µM): 67%
residual activity ([15]; compound 1.0 µM): 102%
residual activity ([16]; compound 1.0 µM): 135%
residual activity ([17]; compound 1.0 µM): 83%
residual activity [35]: 89%
residual activity [36]: 103%
residual activity [37]: 100%
residual activity ([18]; compound 1.0 µM): 77%
residual activity ([19]; compound 1.0 µM): 31%
residual activity ([20]; compound 1.0 µM): 107%
residual activity ([21]; compound 1.0 µM): 97%
residual activity ([22]; compound 1.0 µM): 101%
residual activity [38]: 105%
residual activity ([23]; compound 1.0 µM): 109%
residual activity ([24]; compound 1.0 µM): 102%
residual activity [39]: 95%
residual activity [40]: 83%
residual activity ([25]; compound 1.0 µM): 87%
residual activity [41]: 100%
